Results: US7601709
Read-outs that look alike come from different tables or passages of the source.

Conditions: rcm bond, 40.0 °C

Q: Which ring closure, yield of all isomers (from C=CCCCCC[C@H](NC(=O)OC(C)(C)C)C(=O)N1C[C@H](c2nnn(Cc3ccc(-c4ccccc4)cc3)n2)C[C@H]1C(=O)N[C@]1(C(=O)OCC)C[C@H]1C=C, Hoveyda's catalyst, CH2Cl2, 10.0 mM, 16.0 h) does the source give for `CCOC(=O)[C@@]12C[C@H]1C=CCCCCC[C@H](NC(=O)OC(C)(C)C)C(=O)N1C[C@H](c3nnn(Cc4ccc(-c5ccccc5)cc4)n3)C[C@H]1C(=O)N2` here?
A: Its ring closure, yield of all isomers is 91.3%.

Q: With `CCOC(=O)[C@@]12C[C@H]1C=CCCCCC[C@H](NC(=O)OC(C)(C)C)C(=O)N1C[C@@H](O)C[C@H]1C(=O)N2` as the compound, how does the ring closure, yield of all isomers (from C=CCCCCC[C@H](NC(=O)OC(C)(C)C)C(=O)N1C[C@@H](O)C[C@H]1C(=O)N[C@]1(C(=O)OCC)C[C@H]1C=C, Hoveyda 1st generation catalyst, DCM, 14.45 mM, 12.0 h) read?
A: The ring closure, yield of all isomers was 87%.

Q: For `CCOC(=O)[C@@]12C[C@H]1C=CCCCCC[C@H](NC(=O)OC(C)(C)C)C(=O)N1C[C@H](n3nnc(-c4ccccc4)n3)C[C@H]1C(=O)N2`, which ring closure, yield of all isomers (from C=CCCCCC[C@H](NC(=O)OC(C)(C)C)C(=O)N1C[C@H](n2nnc(-c3ccccc3)n2)C[C@H]1C(=O)N[C@]1(C(=O)OCC)C[C@H]1C=C, Hoveyda catalyst, DCM, 2.18 mM, 20.0 h) is on record?
A: Its ring closure, yield of all isomers is 85.5%.
